Reference: ChEMBL document CHEMBL4725427, “Synthesis and SAR Studies of 1H-Pyrrolo[2,3-b]pyridine-2-carboxamides as Phosphodiesterase 4B (PDE4B) Inhibitors” (ACS Med Chem Lett, 2020)

Assays:
[1] = biological target: cGMP-inhibited 3',5'-cyclic phosphodiesterase 3A (Homo sapiens) (UniProt Q14432); experiment: Inhibition of recombinant human N-terminal His-tagged PDE3A (669 to 1141 end residues) expressed in baculovirus infected Sf9 cells at 10 uM by radioligand assay relative to control
[2] = biological target: Histamine H2 receptor (Homo sapiens) (UniProt P25021); experiment: Inhibition of histamine H2 receptor (unknown origin) relative to control; details: concentration not given here
[3] = biological target: cGMP-inhibited 3',5'-cyclic phosphodiesterase 3B (Homo sapiens) (UniProt Q13370); experiment: Inhibition of recombinant human N-terminal His-tagged PDE3B (592 to end residues) expressed in baculovirus infected Sf9 cells at 10 uM by radioligand assay relative to control
[4] = biological target: Kappa-type opioid receptor (Homo sapiens) (UniProt P41145); experiment: Inhibition of KOR (unknown origin) relative to control; details: concentration not given here
[5] = biological target: 3',5'-cyclic-AMP phosphodiesterase 7B (Homo sapiens) (UniProt Q9NP56); experiment: Inhibition of recombinant human N-terminal GST-tagged C-terminal His-tagged PDE7B (109 to end residues) expressed in baculovirus infected Sf9 cells at 10 uM by radioligand assay relative to control
[6] = biological target: cAMP and cAMP-inhibited cGMP 3',5'-cyclic phosphodiesterase 10A (Homo sapiens) (UniProt Q9Y233); experiment: Inhibition of recombinant human N-terminal GST-tagged PDE10A1 (2 to 789 residues) expressed in baculovirus infected Sf9 cells at 10 uM by radioligand assay relative to control
[7] = biological target: Alpha-2C adrenergic receptor (Homo sapiens) (UniProt P18825); experiment: Inhibition of adrenoceptor alpha 2C (unknown origin) relative to control; details: concentration not given here
[8] = biological target: 5-hydroxytryptamine receptor 1D (Homo sapiens) (UniProt P28221); experiment: Inhibition of 5HT1D (unknown origin) relative to control; details: concentration not given here
[9] = biological target: Sodium-dependent dopamine transporter (Homo sapiens) (UniProt Q01959); experiment: Inhibition of DAT receptor (unknown origin) relative to control; details: concentration not given here
[10] = Protein binding in human plasma assessed as unbound fraction; assay type: ADME, cell-free
[11] = biological target: 3',5'-cyclic-AMP phosphodiesterase 4D (Homo sapiens) (UniProt Q08499); experiment: Inhibition of recombinant human N-terminal GST-tagged PDE4D3 expressed in baculovirus infected Sf9 cells at 10 uM by radioligand assay relative to control
[12] = biological target: Cone cGMP-specific 3',5'-cyclic phosphodiesterase subunit alpha' (Homo sapiens) (UniProt P51160); experiment: Inhibition of recombinant human N-terminal GST-tagged PDE6C expressed in baculovirus infected Sf9 cells at 10 uM by radioligand assay relative to control
[13] = biological target: High affinity cGMP-specific 3',5'-cyclic phosphodiesterase 9A (Homo sapiens) (UniProt O76083); experiment: Inhibition of recombinant human N-terminal GST-tagged PDE9A2 expressed in baculovirus infected Sf9 cells at 10 uM by radioligand assay relative to control
[14] = biological target: Muscarinic acetylcholine receptor M2 (Homo sapiens) (UniProt P08172); experiment: Inhibition of muscarinic M2 receptor (unknown origin) relative to control; details: concentration not given here
[15] = biological target: Muscarinic acetylcholine receptor M1 (Homo sapiens) (UniProt P11229); experiment: Inhibition of muscarinic M1 receptor (unknown origin) relative to control; details: concentration not given here
[16] = biological target: Muscarinic acetylcholine receptor M4 (Homo sapiens) (UniProt P08173); experiment: Inhibition of muscarinic M4 receptor (unknown origin) relative to control; details: concentration not given here
[17] = biological target: Delta-type opioid receptor (Homo sapiens) (UniProt P41143); experiment: Inhibition of DOR receptor (unknown origin) relative to control; details: concentration not given here
[18] = biological target: High affinity cAMP-specific and IBMX-insensitive 3',5'-cyclic phosphodiesterase 8A (Homo sapiens) (UniProt O60658); experiment: Inhibition of recombinant human N-terminal GST-tagged PDE8A1 expressed in baculovirus infected Sf9 cells at 10 uM by radioligand assay relative to control
[19] = Effect on TNFalpha production in C57BL/6 mouse bone marrow derived Macrophage at 1 to 10 uM incubated for 30 mins by ELISA; details: 0.5 h
[20] = Protein binding in mouse plasma assessed as unbound fraction; assay type: ADME, cell-free
Rattus norvegicus = species on record: Rattus norvegicus; experiment: Inhibition of rat brain BZP relative to control; assay type: tissue-based; details: dose or concentration not given here
[21] = biological target: 5-hydroxytryptamine receptor 1A (Homo sapiens) (UniProt P08908); experiment: Inhibition of 5HT1A (unknown origin) relative to control; details: concentration not given here
[22] = biological target: Alpha-2A adrenergic receptor (Homo sapiens) (UniProt P08913); experiment: Inhibition of adrenoceptor alpha 2A (unknown origin) relative to control; details: concentration not given here
[23] = biological target: 5-hydroxytryptamine receptor 5A (Homo sapiens) (UniProt P47898); experiment: Inhibition of 5HT5A (unknown origin) relative to control; details: concentration not given here
[24] = biological target: D(2) dopamine receptor (Homo sapiens) (UniProt P14416); experiment: Inhibition of D2 (unknown origin) relative to control; details: concentration not given here
[25] = biological target: D(3) dopamine receptor (Homo sapiens) (UniProt P35462); experiment: Inhibition of D3 (unknown origin) relative to control; details: concentration not given here
[26] = biological target: 5-hydroxytryptamine receptor 7 (Homo sapiens) (UniProt P34969); experiment: Inhibition of 5HT7A (unknown origin) relative to control; details: concentration not given here
[27] = biological target: Alpha-1A adrenergic receptor (Homo sapiens) (UniProt P35348); experiment: Inhibition of adrenoceptor alpha 1A (unknown origin) relative to control; details: concentration not given here
[28] = biological target: Dual specificity calcium/calmodulin-dependent 3',5'-cyclic nucleotide phosphodiesterase 1A (Homo sapiens) (UniProt P54750); experiment: Inhibition of recombinant human N-terminal GST-tagged PDE1A1 expressed in baculovirus infected Sf9 cells at 10 uM by radioligand assay relative to control
[29] = biological target: Sigma non-opioid intracellular receptor 1 (Homo sapiens) (UniProt Q99720); experiment: Inhibition of sigma1 receptor (unknown origin) relative to control; details: concentration not given here
[30] = biological target: Histamine H3 receptor (Homo sapiens) (UniProt Q9Y5N1); experiment: Inhibition of histamine H3 receptor (unknown origin) relative to control; details: concentration not given here
[31] = biological target: Dual 3',5'-cyclic-AMP and -GMP phosphodiesterase 11A (Homo sapiens) (UniProt Q9HCR9); experiment: Inhibition of recombinant human N-terminal GST-tagged PDE11A4 expressed in baculovirus infected Sf9 cells at 10 uM by radioligand assay relative to control
[32] = biological target: 5-hydroxytryptamine receptor 2A (Homo sapiens) (UniProt P28223); experiment: Inhibition of 5HT2A (unknown origin) relative to control; details: concentration not given here
[33] = biological target: cGMP-specific 3',5'-cyclic phosphodiesterase (Homo sapiens) (UniProt O76074); experiment: Inhibition of recombinant human N-terminal GST-tagged PDE5A1 expressed in baculovirus infected Sf9 cells at 10 uM by radioligand assay relative to control
[34] = biological target: cAMP and cAMP-inhibited cGMP 3',5'-cyclic phosphodiesterase 10A (Homo sapiens) (UniProt Q9Y233); experiment: Inhibition of recombinant human N-terminal GST-tagged PDE10A2 expressed in baculovirus infected Sf9 cells at 10 uM by radioligand assay relative to control
[35] = Metabolic stability in human Hepatocyte assessed as half life; assay type: ADME, tissue-based; details: hepatocytes
[36] = biological target: 5-hydroxytryptamine receptor 2C (Homo sapiens) (UniProt P28335); experiment: Inhibition of 5HT2C (unknown origin) relative to control; details: concentration not given here

Chain of cAMP and cAMP-inhibited cGMP 3',5'-cyclic phosphodiesterase 10A (Homo sapiens) (Q9Y233 whole entry, the tested form may be a part): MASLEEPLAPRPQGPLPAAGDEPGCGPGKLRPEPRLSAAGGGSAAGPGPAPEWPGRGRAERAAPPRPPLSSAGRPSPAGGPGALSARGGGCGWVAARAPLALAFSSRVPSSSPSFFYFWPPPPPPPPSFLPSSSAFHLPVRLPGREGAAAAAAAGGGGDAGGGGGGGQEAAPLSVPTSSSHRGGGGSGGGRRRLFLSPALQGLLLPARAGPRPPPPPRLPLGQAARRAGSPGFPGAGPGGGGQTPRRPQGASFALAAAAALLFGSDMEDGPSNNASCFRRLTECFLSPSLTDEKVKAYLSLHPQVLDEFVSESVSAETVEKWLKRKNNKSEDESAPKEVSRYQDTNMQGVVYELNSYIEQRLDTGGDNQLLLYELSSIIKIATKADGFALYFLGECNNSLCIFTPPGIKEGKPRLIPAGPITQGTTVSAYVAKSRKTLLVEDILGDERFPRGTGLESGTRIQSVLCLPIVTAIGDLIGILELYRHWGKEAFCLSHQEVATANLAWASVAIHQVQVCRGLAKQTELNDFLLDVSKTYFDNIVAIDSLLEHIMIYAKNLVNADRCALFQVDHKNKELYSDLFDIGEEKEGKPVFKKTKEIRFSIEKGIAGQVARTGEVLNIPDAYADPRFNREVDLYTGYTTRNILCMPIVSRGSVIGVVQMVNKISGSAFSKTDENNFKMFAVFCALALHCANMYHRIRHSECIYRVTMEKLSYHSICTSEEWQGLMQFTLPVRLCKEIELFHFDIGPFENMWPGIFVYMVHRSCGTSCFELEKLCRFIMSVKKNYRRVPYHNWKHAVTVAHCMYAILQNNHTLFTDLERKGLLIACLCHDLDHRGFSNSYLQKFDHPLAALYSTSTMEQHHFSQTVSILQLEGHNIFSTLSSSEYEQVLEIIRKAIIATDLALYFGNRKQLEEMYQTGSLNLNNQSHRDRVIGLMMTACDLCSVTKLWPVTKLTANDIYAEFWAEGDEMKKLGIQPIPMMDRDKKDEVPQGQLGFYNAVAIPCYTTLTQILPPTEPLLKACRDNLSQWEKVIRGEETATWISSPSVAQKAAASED
Chain of High affinity cGMP-specific 3',5'-cyclic phosphodiesterase 9A (Homo sapiens) (O76083 whole entry): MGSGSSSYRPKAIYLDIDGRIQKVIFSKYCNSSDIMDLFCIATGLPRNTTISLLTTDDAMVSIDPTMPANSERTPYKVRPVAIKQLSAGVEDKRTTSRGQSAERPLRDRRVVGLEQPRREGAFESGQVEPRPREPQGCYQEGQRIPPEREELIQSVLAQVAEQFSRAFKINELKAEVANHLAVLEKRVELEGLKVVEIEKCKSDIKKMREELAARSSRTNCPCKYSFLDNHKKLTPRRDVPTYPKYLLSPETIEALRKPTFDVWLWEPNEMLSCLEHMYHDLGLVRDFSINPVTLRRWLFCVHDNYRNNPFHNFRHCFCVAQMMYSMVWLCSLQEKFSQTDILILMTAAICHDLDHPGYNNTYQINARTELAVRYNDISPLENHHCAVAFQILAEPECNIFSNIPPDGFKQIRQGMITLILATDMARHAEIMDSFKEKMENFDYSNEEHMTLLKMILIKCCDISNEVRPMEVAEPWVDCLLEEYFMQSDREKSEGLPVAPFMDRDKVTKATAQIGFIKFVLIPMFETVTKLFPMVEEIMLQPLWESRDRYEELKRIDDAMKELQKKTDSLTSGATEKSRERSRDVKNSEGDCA
Chain of Muscarinic acetylcholine receptor M4 (Homo sapiens) (P08173 whole entry): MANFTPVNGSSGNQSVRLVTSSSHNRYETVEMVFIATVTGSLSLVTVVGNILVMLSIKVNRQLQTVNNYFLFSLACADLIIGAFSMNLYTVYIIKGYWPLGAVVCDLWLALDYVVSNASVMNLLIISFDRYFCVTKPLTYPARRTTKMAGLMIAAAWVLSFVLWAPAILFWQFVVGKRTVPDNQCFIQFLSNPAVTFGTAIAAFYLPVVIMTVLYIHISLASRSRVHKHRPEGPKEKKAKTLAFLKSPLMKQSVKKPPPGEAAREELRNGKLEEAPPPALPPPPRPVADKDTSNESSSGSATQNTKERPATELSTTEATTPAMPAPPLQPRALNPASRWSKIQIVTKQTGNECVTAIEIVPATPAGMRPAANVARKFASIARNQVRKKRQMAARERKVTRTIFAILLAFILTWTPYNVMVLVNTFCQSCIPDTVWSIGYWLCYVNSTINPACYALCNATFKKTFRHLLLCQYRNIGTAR
Chain of Muscarinic acetylcholine receptor M1 (Homo sapiens) (P11229 whole entry): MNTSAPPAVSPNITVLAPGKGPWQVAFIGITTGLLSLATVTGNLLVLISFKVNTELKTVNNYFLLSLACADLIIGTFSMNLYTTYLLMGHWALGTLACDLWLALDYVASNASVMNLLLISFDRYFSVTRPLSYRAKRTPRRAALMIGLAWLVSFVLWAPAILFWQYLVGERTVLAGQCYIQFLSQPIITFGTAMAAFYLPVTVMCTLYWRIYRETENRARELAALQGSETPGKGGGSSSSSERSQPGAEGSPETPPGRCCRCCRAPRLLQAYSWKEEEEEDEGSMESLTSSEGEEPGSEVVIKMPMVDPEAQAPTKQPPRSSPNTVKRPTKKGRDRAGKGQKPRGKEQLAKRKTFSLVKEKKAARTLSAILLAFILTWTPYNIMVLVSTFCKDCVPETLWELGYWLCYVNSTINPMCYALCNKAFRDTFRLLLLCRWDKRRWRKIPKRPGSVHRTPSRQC
Chain of Muscarinic acetylcholine receptor M2 (Homo sapiens) (P08172 whole entry): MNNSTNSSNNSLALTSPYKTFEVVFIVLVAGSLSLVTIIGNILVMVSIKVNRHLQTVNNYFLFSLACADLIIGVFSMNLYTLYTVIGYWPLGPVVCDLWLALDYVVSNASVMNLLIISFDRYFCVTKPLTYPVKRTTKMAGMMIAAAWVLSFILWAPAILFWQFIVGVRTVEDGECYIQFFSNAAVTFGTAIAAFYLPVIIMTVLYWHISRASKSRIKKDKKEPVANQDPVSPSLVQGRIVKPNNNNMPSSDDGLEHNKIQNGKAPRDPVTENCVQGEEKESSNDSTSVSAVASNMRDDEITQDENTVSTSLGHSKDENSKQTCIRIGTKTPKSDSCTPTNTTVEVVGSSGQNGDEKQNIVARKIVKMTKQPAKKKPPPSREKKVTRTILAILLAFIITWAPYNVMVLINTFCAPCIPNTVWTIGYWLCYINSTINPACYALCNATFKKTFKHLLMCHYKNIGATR
Chain of 5-hydroxytryptamine receptor 7 (Homo sapiens) (P34969 whole entry): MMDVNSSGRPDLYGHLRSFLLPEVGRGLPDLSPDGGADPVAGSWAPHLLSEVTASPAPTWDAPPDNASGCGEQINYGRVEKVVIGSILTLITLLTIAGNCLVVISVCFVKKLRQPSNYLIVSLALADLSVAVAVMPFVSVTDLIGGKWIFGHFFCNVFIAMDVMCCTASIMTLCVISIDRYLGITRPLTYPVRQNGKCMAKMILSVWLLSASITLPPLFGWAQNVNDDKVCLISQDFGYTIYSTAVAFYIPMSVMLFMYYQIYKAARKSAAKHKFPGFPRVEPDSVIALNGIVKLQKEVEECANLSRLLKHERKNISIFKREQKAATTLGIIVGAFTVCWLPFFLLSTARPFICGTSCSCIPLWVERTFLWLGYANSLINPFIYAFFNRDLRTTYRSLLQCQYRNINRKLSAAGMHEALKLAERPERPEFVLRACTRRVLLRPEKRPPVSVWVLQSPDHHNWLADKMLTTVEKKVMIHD
Chain of Dual 3',5'-cyclic-AMP and -GMP phosphodiesterase 11A (Homo sapiens) (Q9HCR9 whole entry, looked up): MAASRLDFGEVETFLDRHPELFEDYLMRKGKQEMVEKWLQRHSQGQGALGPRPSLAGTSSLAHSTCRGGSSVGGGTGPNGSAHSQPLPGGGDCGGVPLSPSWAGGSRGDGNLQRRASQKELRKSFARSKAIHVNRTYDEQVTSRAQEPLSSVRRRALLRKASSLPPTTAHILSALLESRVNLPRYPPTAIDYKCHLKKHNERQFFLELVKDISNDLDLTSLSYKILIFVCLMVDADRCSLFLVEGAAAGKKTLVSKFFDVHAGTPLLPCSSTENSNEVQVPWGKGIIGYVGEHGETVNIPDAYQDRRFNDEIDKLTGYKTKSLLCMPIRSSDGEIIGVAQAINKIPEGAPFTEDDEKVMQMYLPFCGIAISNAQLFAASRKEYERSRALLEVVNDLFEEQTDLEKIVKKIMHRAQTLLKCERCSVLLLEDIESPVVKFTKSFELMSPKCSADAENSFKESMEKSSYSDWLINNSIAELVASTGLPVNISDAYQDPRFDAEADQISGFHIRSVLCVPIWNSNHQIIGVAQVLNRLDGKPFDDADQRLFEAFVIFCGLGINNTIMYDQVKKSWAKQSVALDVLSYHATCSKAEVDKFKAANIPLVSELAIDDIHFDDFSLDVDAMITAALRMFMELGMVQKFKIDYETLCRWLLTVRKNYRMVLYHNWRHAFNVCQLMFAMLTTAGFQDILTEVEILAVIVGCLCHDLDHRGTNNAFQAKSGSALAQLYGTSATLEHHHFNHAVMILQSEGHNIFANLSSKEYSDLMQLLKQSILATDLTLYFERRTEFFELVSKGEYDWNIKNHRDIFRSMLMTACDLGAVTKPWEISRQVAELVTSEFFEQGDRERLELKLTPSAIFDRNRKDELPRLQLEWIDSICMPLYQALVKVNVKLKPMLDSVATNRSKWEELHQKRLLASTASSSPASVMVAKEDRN
Chain of Sigma non-opioid intracellular receptor 1 (Homo sapiens) (Q99720 whole entry): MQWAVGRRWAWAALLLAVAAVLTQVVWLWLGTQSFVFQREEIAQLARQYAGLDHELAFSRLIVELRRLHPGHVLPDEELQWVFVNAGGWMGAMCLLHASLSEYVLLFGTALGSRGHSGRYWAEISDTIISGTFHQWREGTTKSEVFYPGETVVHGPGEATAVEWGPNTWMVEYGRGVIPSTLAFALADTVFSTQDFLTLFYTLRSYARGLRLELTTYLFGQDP

## O=C(c1nc2cccnc2n1-c1ccc(Cl)c(Cl)c1)N1CC(F)(F)C1
[1]
  inhibition: < 50%
[2]
  inhibition: < 50%
[3]
  inhibition: 87%
[4]
  inhibition: < 50%
[5]
  inhibition: < 50%
[6]
  inhibition: < 50%
[7]
  inhibition: < 50%
[8]
  inhibition: < 50%
[9]
  inhibition: < 50%
[10]
  fraction unbound: 0.038
[11]
  inhibition: < 50%
[12]
  inhibition: < 50%
[13]
  inhibition: < 50%
[14]
  inhibition: < 50%
[15]
  inhibition: < 50%
[16]
  inhibition: < 50%
[17]
  inhibition: < 50%
[18]
  inhibition: < 50%
[19]
  Activity: Non-Toxic
[20]
  fraction unbound: 0.027
Rattus norvegicus
  inhibition: < 50%
[21]
  inhibition: < 50%
[22]
  inhibition: < 50%
[23]
  inhibition: < 50%
[24]
  inhibition: < 50%
[25]
  inhibition: < 50%
[26]
  inhibition: < 50%
[27]
  inhibition: < 50%
[28]
  inhibition: < 50%
[29]
  inhibition: < 50%
[30]
  inhibition: < 50%
[31]
  inhibition: < 50%
[32]
  inhibition: < 50%
[33]
  inhibition: < 50%
[34]
  inhibition: < 50%
[35]
  half-life: 49.4 min
[36]
  inhibition: 59%
